Results published in US20100261679A1 (priority 2007, published 2010).

Columns and labels:
cKIT = molecular target: T1, cKIT (Homo sapiens, UniProt P10721); assay: Inhibition of cKIT kinase in an in vitro biochemical assay (alphascreen); conditions: tested at about 1 μM
T1 construct: The kinase domain of cKIT was assayed in 50 mM Hepes; purchased Upstate 14-559
Method: (§1) The IC50 values for the inhibition of RTKs were determined in the alphascreen format measuring the inhibition by compound of phosphate transfer to a substrate by the respective enzyme. Briefly, the respective RTK domain purchased as human recombinant protein (cKIT Upstate #14-559, PDGFRb Invitrogen #P3082) were incubated with serial dilutions of compound in the presence of substrate and ATP concentrations within 3 times the Km of the enzyme.
(§2) The kinase domain of cKIT was assayed in 50 mM Hepes, pH=7.5, 5 mM MgCl2, 10 mM MnCl2, 1 mM DTT, 0.1% BSA with 0.06 uM biotinylated peptide substrate (GGLFDDPSYVNVQNL-NH2) and 15 μM ATP (ATP KM apparent =15 μM). The kinase domain of PDGFRβ was assayed in 50 mM Hepes, pH=7.5, 20 mM MgCl2, 1 mM DTT, 0.1% BSA with 0.1 μM biotinylated peptide substrate (GGLFDDPSYVNVQNL-NH2) and 10 μM ATP (ATP KM apparent=25 μM). Reactions were incubated at room temperature for 3 to 4 hr and stopped with buffer (20 mM EDTA, 0.01% Tween-20 for both PDGFRβ and cKIT). Alphascreen PY20 beads were added to the stopped cKIT reactions and PY20 Ab/Protein A Alphascreen beads were added to the PDGFRβ stopped reactions. Both reactions were incubated overnight and read on the Alphascreen reader. The concentration of compound for 50% inhibition (IC50) was calculated employing non-linear regression using XL-Fit data analysis software. As a control compound, staurosporine is run in every assay and a Z′>0.5 is required to validate results.

PDGFRb = molecular target: T2, PDGFRb (Homo sapiens, UniProt P09619); assay: Inhibition of PDGFRb kinase in an in vitro biochemical assay (alphascreen); conditions: tested at about 1 μM; read-out: PDGFR % inhibition at 1 μM
T2 construct: The kinase domain of PDGFRβ was assayed in 50 mM Hepes; purchased Invitrogen P3082
T2 sequence (P09619 600-962 limits assumed): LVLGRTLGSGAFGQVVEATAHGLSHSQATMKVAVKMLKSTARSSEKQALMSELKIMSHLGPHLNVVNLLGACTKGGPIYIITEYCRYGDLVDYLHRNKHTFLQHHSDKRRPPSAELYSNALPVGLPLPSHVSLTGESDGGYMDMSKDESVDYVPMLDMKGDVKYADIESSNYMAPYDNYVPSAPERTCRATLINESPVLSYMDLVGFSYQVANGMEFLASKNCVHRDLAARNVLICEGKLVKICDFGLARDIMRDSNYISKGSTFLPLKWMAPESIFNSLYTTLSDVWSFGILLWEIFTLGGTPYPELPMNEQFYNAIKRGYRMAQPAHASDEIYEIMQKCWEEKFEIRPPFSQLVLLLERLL
Method: as §1, §2

[1] = molecular target: T3, cytoplasmic domain of the human CSF-1R (Homo sapiens, UniProt P07333); assay: In vitro kinase assay for CSF-1R (AlphaScreen); type: biochemical; conditions: tested at about 1 μM
T3 construct: Recombinant protein corresponding to the cytoplasmic domain of the human CSF-1R; purchased Invitrogen Corporation, Carlsbad, Calif; U.S.A. PV3249
T3 sequence (P07333 539-972 limits assumed): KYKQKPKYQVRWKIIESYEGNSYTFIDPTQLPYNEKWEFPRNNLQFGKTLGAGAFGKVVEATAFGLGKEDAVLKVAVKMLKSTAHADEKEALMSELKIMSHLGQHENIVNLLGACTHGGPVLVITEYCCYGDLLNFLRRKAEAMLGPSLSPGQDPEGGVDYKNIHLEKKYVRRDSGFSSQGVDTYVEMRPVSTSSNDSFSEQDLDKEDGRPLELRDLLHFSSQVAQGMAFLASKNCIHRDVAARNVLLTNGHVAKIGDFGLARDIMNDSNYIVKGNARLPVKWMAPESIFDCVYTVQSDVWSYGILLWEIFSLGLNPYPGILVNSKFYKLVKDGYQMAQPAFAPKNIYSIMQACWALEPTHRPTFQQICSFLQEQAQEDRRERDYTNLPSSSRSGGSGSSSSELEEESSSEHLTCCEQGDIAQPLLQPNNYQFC
Method: The kinase activity of various protein tyrosine kinases can be measured by providing ATP and a suitable peptide or protein tyrosine-containing substrate, and assaying the transfer of phosphate moiety to the tyrosine residue. Recombinant protein corresponding to the cytoplasmic domain of the human CSF-1R was purchased from Invitrogen Corporation, Carlsbad, Calif. U.S.A. (#PV3249). For each assay, test compounds were serially diluted, starting at 25 μM with 3 fold dilutions, in DMSO in 384 well plates then mixed with an appropriate kinase reaction buffer consisting of 50 mM Hepes, 5 mM MgCl2, 10 mM MnCl2, 0.1% BSA, pH 7.5, 1.0 mM dithiothreitol, 0.01% Tween 80 plus […]. Kinase protein and an appropriate biotinylated peptide substrate at 50 nM were added to give a final volume of 20 μL, reactions were incubated for 2 hours at room temperature and stopped by the addition of 10 μL of 45 mM EDTA, 50 mM Hepes pH 7.5. Added to the stopped reaction mix was 30 μL of PT66 Alphascreen beads (Perkin Elmer, Boston, Mass., U.S.A.). The reaction was incubated overnight and read on the Envision (Perkin Elmer). Phosphorylated peptide product was measured with the AlphaScreen system (Perkin Elmer) using acceptor beads coated with anti-phosphotyrosine antibody PT66 and donor beads coated with streptavidin that emit a fluorescent signal at the 520-620 nm emission wave length if in close proximity. The concentration of each compound for 50% inhibition (IC50) was calculated by non-linear regression using XL Fit data analysis software.
CSF-1R kinase was assayed in 50 mM Hepes pH 7.0, 5 mM MgCl2, 10 mM MnCl2, 1 mM DTT, 1 mg/mL BSA, 1.0 μM ATP, and 0.05 μM biotin-GGGGRPRAATF-NH2 (SEQ ID NO:2) peptide substrate. CSF-1R kinase was added at final concentration of 4 nM.

T1 sequence (P10721 589-937 limits assumed): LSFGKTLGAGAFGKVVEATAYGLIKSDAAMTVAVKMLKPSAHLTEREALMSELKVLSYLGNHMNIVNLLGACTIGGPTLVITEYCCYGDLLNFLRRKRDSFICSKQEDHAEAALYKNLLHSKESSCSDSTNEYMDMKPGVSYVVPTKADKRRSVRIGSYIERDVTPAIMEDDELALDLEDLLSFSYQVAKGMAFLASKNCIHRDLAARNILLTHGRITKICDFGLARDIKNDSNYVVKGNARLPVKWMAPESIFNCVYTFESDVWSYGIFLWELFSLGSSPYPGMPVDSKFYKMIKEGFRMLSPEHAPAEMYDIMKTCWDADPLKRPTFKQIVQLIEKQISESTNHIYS

SMILES | inhibition at 1 µM (cKIT) [%] | inhibition at 1 µM (PDGFRb) [%] | inhibition at 1 µM [1] [%]
CNC(=O)c1cc(Sc2ccc3nc(NCC4CCCCC4)sc3c2)ccn1 [Example 78, 4-(2-(cyclohexylmethylamino)benzo [d]thiazol-6-ylthio)-N-methylpicolinamide] | 13 | 34 | 100
CNC(=O)c1cc(Oc2ccc3nc(Nc4ccccc4OCCOC)ncc3c2)ccn1 [Example 69, 4-(2-(2-(2-methoxyethoxy)phenylamino)quinazolin-6-yloxy)-N-methylpicolinamide] | 17 | 5 | 99
CNC(=O)c1cc(Oc2ccc3nc(N[C@H]4c5ccccc5C[C@H]4O)ncc3c2)ccn1 [Cmpd 20, 4-(2-((1S,2R)-2-hydroxy-2,3-dihydro-1H-inden-1-ylamino)quinazolin-6-yloxy)-N-methylpicolinamide] | 60 | 25 | 100
CC(=O)Nc1cc(Oc2ccc3nc(Nc4ccccc4N4CCOCC4)ncc3c2)ccn1 [Example 32, N-(4-(2-(2-morpholinophenylamino)quinazolin-6-yloxy)pyridin-2-yl)acetamide] | 7 | < 1 | 99
CNC(=O)c1cc(Oc2ccc3nc(N[C@H](CO)C4CCCCC4)ncc3c2)ccn1 [Cmpd 18, (S)-4-(2-(1-cyclohexyl-2-hydroxyethylamino)quinazolin-6-yloxy)-N-methylpicolinamide] | 30 | 31 | 99
CC[C@H](C)[C@@H](CO)Nc1ncc2cc(Oc3ccnc(C(=O)NC)c3)ccc2n1 [Cmpd 14, 4-(2-((2S,3S)-1-hydroxy-3-methylpentan-2-ylamino)quinazolin-6-yloxy)-N-methylpicolinamide] | 19 | 15 | 99
CNC(=O)c1cc(Oc2ccc3nc(Nc4ccccc4OCCCO)ncc3c2)ccn1 [Example 71, 4-(2-(2-(3-hydroxypropoxy)phenylamino)quinazolin-6-yloxy)-N-methylpicolinamide] | < 1 | 11 | 90
c1cc(Cc2ccc3nc(NCC4CCCCC4)sc3c2)ccn1 [Example 77, N-(cyclohexylmethyl)-6-(pyridin-4-ylmethyl)benzo[d]thiazol-2-amine] | 10 | 16 | 74
c1ccc(N2CCOCC2)c(Nc2ncc3cc(Oc4ccncc4)ccc3n2)c1 [Cmpd 28, N-(2-morpholinophenyl)-6-(pyridin-4-yloxy)quinazolin-2-amine] | 8 | < 1 | 52
CNC(=O)c1cc(Oc2ccc3nc(NC(=O)c4ccccc4)ncc3c2)ccn1 [Example 72, 4-(2-benzamidoquinazolin-6-yloxy)-N-methylpicolinamide] | 13 | 43 | 98
CNC(=O)c1cc(Oc2ccc3nc(N[C@@H]4c5ccccc5C[C@@H]4O)ncc3c2)ccn1 [Cmpd 19, 4-(2-((1R,2S)-2-hydroxy-2,3-dihydro-1H-inden-1-ylamino)quinazolin-6-yloxy)-N-methylpicolinamide] | 30 | 3 | 100
CNC(=O)c1cc(Oc2ccc3nc(Nc4ccccc4OCCO)ncc3c2)ccn1 [Example 70, 4-(2-(2-(2-hydroxyethoxy)phenylamino)quinazolin-6-yloxy)-N-methylpicolinamide] | 11 | 13 | 95
OC(c1ccncc1)c1ccc2nc(NCC3CCCCC3)sc2c1 (stereo not drawn) [Example 76, (2-(cyclohexylmethylamino)benzo [d]thiazol-6-yl)(pyridin-4-yl)methanol] | 49 | 27 | 65
CNC(=O)c1cc(Oc2ccc3nc(NCC(C)(C)N4CCOCC4)ncc3c2)ccn1 [Example 61, N-methyl-4-(2-(2-methyl-2-morpholinopropylamino)quinazolin-6-yloxy)picolinamide] | 12 | < 1 | 93
CNC(=O)c1cc(Oc2ccc3nc(N[C@@H](CO)C4CCCCC4)ncc3c2)ccn1 [Cmpd 17, (R)-4-(2-(1-cyclohexyl-2-hydroxyethylamino)quinazolin-6-yloxy)-N-methylpicolinamide] | 61 | 38 | 100
CCOC(=O)N1CCC(Nc2ncc3cc(Oc4ccnc(C(=O)NC)c4)ccc3n2)CC1 [Example 56, ethyl 4-(6-(2-(methylcarbamoyl)pyridin-4-yloxy)quinazolin-2-ylamino)piperidine-1-carboxylate] | 17 | < 1 | 84
CNC(=O)c1cc(Oc2ccc3nc(NCc4cccc5c4OCCO5)ncc3c2)ccn1 [Example 42, 4-(2-((2,3-dihydrobenzo[b][1,4]dioxin-5-yl)methylamino)quinazolin-6-yloxy)-N-methylpicolinamide] | 99 | 66 | 100
CNC(=O)c1cc(Oc2ccc3nc(N[C@@H](C)C4CCCCC4)ncc3c2)ccn1 [Cmpd 16, (S)-4-(2-(1-cyclohexylethylamino)quinazolin-6-yloxy)-N-methylpicolinamide] | 58 | 26 | 100
CNC(=O)c1cc(Oc2ccc3nc(NC(C)c4nccs4)ncc3c2)ccn1 (stereo not drawn) [Example 48, N-methyl-4-(2-(1-(thiazol-2-yl)ethylamino)quinazolin-6-yloxy)picolinamide] | 18 | 15 | 98
CNC(=O)c1cc(Oc2ccc3nc(N[C@@H]4CCCC[C@H]4N)ncc3c2)ccn1 [Example 73, 4-(2-((1R,2R)-2-aminocyclohexylamino)quinazolin-6-yloxy)-N-methylpicolinamide] | 8 | 19 | 62
CNC(=O)c1cc(Oc2ccc3nc(NC4CCCCC4)ncc3c2)ccn1 [Example 74, 4-(2-(cyclohexylamino)quinazolin-6-yloxy)-N-methylpicolinamide] | 18 | < 1 | 100
CNC(=O)c1cc(Oc2ccc3nc(N[C@H](CO)Cc4ccccc4)ncc3c2)ccn1 [Example 13] | 28 | 24 | 88
